From paper PMC8269116 (Journal of psychopharmacology (Oxford, England), 2019)
“And” between values parts separate entries of the source, which are not always exact repeats. Identical values can stand only once. Like-named read-outs stand apart in the source and are kept apart here.

Legend:
[1] = molecular target: T1, α2 adrenergic receptor (α2A) (Homo sapiens, UniProt P08913); test: Radioligand binding, [3H]rauwolscine displacement
T1 sequence (P08913 1-465): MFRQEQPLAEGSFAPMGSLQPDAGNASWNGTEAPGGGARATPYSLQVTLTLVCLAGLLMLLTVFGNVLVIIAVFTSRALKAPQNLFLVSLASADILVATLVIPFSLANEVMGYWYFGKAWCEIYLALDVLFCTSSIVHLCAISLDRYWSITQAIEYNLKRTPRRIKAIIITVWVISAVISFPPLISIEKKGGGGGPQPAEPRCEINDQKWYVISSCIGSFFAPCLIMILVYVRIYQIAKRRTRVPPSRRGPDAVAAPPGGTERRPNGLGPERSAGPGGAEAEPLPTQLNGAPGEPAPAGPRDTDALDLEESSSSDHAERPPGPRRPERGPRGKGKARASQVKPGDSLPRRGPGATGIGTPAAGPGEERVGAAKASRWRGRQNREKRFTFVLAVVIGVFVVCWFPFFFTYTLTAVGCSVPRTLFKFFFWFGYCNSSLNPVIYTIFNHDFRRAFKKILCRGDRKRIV

NET [2] = molecular target: T2, NET (Homo sapiens, UniProt P23975); test: Radioligand binding, N-methyl-[3H]nisoxetine displacement
T2 sequence (P23975 whole entry): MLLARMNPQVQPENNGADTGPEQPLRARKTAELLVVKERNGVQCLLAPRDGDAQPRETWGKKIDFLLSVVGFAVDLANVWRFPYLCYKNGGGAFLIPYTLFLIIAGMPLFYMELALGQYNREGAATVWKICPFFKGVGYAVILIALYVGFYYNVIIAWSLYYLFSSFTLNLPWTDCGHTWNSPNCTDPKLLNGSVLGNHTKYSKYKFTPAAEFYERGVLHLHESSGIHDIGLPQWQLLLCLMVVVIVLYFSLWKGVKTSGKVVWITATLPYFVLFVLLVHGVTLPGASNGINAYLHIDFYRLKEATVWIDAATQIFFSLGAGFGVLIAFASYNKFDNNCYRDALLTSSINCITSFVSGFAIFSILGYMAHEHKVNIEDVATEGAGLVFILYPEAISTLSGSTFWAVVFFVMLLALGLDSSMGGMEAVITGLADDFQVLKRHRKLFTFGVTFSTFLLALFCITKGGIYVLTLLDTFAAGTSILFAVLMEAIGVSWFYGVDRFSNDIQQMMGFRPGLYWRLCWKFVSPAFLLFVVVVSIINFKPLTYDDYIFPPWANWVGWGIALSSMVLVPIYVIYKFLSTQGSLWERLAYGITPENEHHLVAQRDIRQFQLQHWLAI

5-HT2C receptor = molecular target: T3, 5-HT2C receptor (Homo sapiens, UniProt P28335); test: biochemical; type: binding
T3 sequence (P28335 33-458): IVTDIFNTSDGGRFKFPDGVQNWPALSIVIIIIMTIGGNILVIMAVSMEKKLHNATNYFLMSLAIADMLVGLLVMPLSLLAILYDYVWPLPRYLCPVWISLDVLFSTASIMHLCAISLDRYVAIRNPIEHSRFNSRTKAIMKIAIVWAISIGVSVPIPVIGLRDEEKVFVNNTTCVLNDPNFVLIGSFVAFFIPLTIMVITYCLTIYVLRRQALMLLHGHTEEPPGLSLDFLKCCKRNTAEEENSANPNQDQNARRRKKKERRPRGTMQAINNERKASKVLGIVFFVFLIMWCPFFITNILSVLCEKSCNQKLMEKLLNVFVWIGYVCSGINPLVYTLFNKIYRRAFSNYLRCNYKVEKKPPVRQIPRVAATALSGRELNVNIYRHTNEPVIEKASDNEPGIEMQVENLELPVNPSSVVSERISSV

dopamine D2 receptors = dopamine D2 receptors (Homo sapiens, UniProt P14416); test: Radioligand binding, [3H]spiperone displacement
dopamine D2 receptors, sequence (P14416 whole entry): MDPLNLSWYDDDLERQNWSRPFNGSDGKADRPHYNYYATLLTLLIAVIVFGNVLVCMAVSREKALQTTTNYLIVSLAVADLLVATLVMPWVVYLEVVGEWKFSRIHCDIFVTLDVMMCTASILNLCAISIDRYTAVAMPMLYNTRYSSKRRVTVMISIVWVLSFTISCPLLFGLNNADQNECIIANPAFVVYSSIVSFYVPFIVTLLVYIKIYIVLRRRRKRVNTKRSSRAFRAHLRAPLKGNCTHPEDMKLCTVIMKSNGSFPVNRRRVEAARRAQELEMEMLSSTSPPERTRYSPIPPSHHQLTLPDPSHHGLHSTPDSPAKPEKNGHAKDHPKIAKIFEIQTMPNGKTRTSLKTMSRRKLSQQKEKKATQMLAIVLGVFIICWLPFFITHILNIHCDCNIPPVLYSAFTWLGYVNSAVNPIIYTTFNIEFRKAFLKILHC

5-HT2A receptor = 5-HT2A receptor (Homo sapiens, UniProt P28223); test: Radioligand binding, [3H]ketanserin displacement
5-HT2A receptor, sequence (P28223 whole entry): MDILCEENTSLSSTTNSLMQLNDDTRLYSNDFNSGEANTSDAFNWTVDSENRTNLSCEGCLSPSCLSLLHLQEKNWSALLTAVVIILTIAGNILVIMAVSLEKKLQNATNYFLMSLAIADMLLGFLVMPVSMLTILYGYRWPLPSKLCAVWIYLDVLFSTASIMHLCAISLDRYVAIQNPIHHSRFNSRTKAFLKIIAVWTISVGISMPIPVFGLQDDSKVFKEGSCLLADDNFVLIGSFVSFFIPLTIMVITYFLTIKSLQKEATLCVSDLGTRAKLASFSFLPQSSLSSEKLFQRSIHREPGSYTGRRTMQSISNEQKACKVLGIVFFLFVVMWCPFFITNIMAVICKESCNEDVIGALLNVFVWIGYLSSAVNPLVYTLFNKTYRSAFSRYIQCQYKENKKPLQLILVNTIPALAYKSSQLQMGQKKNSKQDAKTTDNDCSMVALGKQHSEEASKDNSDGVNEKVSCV

DAT [3] = molecular target: T4, DAT (Homo sapiens, UniProt Q01959); test: Radioligand binding, [3H]WIN35,428 displacement
T4 sequence (Q01959 whole entry): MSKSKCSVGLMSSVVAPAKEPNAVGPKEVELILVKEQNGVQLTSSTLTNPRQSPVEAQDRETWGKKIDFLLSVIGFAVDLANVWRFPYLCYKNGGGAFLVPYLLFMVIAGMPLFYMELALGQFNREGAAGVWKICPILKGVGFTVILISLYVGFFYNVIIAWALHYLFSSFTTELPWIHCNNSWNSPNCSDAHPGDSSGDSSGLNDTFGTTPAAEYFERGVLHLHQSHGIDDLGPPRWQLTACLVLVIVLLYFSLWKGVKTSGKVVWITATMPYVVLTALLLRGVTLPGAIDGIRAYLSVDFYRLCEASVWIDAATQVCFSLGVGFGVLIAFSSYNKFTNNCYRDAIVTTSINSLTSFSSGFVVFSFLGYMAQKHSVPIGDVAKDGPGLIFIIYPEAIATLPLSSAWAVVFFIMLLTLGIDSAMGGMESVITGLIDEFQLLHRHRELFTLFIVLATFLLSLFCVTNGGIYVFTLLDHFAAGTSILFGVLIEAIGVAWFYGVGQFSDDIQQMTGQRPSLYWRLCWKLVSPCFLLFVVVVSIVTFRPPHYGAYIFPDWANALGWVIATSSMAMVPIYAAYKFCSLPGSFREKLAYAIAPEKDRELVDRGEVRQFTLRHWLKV

rat TAAR1 = rat TAAR1 (Rattus norvegicus, UniProt Q923Y9); test: Radioligand binding, [3H]RO5166017 displacement
rat TAAR1, sequence (Q923Y9 whole entry): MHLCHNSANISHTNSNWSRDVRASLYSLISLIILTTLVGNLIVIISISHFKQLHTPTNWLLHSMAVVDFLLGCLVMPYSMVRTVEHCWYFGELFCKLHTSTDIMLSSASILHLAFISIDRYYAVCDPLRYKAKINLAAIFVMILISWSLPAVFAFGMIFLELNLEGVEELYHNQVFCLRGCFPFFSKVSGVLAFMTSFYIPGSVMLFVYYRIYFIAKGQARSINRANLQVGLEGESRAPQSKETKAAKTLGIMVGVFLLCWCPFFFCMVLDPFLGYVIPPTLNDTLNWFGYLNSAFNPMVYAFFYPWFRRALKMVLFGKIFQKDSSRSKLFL

mouse TAAR1 = mouse TAAR1 (Mus musculus, UniProt Q923Y8); test: Radioligand binding, [3H]RO5166017 displacement
mouse TAAR1, sequence (Q923Y8 whole entry): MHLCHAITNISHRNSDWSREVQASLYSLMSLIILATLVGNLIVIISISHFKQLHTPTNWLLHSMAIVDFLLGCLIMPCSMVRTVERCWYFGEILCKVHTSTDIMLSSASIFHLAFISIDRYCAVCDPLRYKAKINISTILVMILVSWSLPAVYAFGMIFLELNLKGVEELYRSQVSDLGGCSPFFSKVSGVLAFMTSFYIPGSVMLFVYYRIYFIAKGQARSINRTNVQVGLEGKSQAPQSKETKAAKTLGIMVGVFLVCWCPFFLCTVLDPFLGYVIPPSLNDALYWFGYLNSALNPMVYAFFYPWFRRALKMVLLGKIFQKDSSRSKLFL

DAT [4] = molecular target: T4, DAT; test: [3H]dopamine uptake inhibition in HEK 293 cells overexpressing human DAT; type: cell-based; details: for increase of dopamine uptake: anomalous increase at some concentrations, non-sigmoidal curves; for DAT/SERT ratio: 1/DAT IC50 : 1/SERT IC50, mean and 95% confidence interval
SERT = SERT (Homo sapiens, UniProt P31645); test: Radioligand binding, [3H]citalopram displacement
SERT, sequence (P31645 whole entry): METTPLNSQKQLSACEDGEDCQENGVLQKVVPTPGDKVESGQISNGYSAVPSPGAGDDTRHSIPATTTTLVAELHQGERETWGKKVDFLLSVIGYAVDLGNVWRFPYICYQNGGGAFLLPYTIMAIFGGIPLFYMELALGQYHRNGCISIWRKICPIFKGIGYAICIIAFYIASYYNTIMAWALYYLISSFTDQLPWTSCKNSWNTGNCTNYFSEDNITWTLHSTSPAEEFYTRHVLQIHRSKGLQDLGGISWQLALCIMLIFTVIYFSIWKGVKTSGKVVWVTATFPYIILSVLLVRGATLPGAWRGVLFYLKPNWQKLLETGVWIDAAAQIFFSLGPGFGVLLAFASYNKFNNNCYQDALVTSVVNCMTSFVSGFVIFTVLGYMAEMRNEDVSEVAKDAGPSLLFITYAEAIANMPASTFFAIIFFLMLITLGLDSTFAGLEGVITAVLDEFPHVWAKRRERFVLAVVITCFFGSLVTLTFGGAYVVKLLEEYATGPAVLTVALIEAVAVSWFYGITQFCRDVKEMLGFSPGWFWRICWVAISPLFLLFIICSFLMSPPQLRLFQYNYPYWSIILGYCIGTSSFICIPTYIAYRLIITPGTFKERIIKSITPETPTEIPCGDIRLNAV

5-HT1A receptor = molecular target: T5, 5-HT1A receptor (Homo sapiens, UniProt P08908); test: Radioligand binding, [3H]8-hydroxy-2-
T5 sequence (P08908 1-422): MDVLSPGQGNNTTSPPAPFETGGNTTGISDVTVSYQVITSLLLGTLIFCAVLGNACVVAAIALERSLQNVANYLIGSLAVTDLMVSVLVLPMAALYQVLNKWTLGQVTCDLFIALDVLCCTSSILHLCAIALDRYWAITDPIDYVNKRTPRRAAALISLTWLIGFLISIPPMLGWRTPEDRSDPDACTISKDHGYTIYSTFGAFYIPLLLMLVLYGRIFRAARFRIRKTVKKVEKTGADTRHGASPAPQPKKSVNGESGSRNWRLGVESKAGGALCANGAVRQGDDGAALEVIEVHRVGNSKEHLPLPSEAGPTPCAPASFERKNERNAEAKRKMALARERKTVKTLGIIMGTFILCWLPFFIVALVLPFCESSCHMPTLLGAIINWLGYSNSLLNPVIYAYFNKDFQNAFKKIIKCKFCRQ

[5] = molecular target: human 5-HT transporter (SERT) (Homo sapiens, UniProt P31645); test: [3H]5-HT uptake inhibition in HEK 293 cells overexpressing human SERT; type: cell-based
human 5-HT transporter (SERT), sequence (P31645 whole entry): as the sequence (P31645 whole entry) above

NET [6] = molecular target: T2, NET; test: [3H]norepinephrine uptake inhibition in HEK 293 cells overexpressing human NET; type: cell-based
[7] = molecular target: T6, α1 adrenergic receptor (α1A) (Homo sapiens, UniProt P35348); test: Radioligand binding, [3H]prazosin displacement
T6 sequence (P35348 1-466): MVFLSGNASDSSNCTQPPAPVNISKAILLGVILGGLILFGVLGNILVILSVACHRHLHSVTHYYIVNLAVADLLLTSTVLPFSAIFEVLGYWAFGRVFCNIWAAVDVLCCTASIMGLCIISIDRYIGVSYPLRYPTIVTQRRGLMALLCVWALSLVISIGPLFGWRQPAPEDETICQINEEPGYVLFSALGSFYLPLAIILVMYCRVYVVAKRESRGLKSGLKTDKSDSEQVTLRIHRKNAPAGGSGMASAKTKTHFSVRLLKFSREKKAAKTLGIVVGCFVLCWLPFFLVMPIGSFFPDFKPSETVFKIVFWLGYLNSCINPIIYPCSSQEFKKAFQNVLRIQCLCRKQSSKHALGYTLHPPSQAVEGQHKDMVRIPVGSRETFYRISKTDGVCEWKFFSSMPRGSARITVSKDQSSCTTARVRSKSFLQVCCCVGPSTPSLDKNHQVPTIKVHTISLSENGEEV

[8] = rat plasma, ref Elmore et al., 2017, cited from earlier work; for amount in plasma as % of parent compound methylone: subcutaneous injections of methylone; for time at which Cmax was reached: subcutaneous methylone
[9] = rats, ref Anizan et al., 2016, cited from earlier work; for maximal concentration as % of the parent compound MDPV: subcutaneous 0.5–2 mg/kg MDPV; for Tmax: subcutaneous injections of 0.5–2 mg/kg MDPV
[10] = healthy human subjects, oral MDMA; ref Schmid et al., 2016; cited from earlier work
[11] = after subcutaneous methylone, ref Stefkova et al., 2017, cited from earlier work
[12] = read-out: 5-HT2c Ki, mean±SD, n=3
[13] = read-out: 5-HT2A Ki, mean±SD, n=3
[14] = read-out: TAAR1rat Ki, mean±SD, n=3
[15] = read-out: TAAR1mouse Ki, mean±SD, n=3
[16] = read-out: SERT Ki, mean±SD, n=3
[17] = read-out: 5-HT1A Ki, mean±SD, n=3
[18] = read-out: SERT IC50, 5-HT uptake inhibition, mean and 95% confidence interval

| Compound | increase of dopamine uptake (DAT [4]) | Ki ([1]; read-out: α2A Ki, mean±SD, n=3) [µM] | Ki (NET [2]; read-out: NET Ki, mean±SD, n=3) | Ki (5-HT2C receptor; [12]) | Ki (dopamine D2 receptors; read-out: D2 Ki, mean±SD, n=3) [µM] | Ki (5-HT2A receptor; [13]) [µM] | Ki (DAT [3]; read-out: DAT Ki, mean±SD, n=3) | Ki (rat TAAR1; [14]) [µM] | Ki (mouse TAAR1; [15]) [µM] | Ki (SERT; [16]) [µM] | Ki (5-HT1A receptor; [17]) [µM] | IC50 [5, 18] [µM] | Ki ([7]; read-out: α1A Ki, mean±SD, n=3) [µM] | amount in plasma as % of parent compound methylone [8] | time at which Cmax was reached [8] [min] | Tmax [9] [h] | DAT/SERT ratio (DAT [4]) | further results |
| --- | --- | --- | --- | --- | --- | --- | --- | --- | --- | --- | --- | --- | --- | --- | --- | --- | --- | --- |
| CC(N)Cc1ccc(O)c(O)c1 (stereo not drawn) [HHA, 3,4-Dihydroxyamphetamine] | more than 200% | – | – | – | – | – | – | – | – | – | – | – | – | – | – | – | – | Ki [1]: 2 ± 0.4 µM; Ki (NET [2]): 0.79 ± 0.3 µM; Ki (5-HT2C receptor): > 5.1 µM; Ki (dopamine D2 receptors): > 13 µM; Ki (5-HT2A receptor): 9.2 ± 1.7 µM; Ki (DAT [3]): 2.9 ± 0.3 µM; Ki (rat TAAR1): 1.9 ± 0.4 µM; Ki (mouse TAAR1): 1.4 ± 0.2 µM; IC50 (DAT [4]): 9.6 µM; Ki (SERT): > 7.4 µM; Ki (5-HT1A receptor): > 18 µM; IC50 [5]: 63 µM; IC50 (NET [6]): 0.18 µM; Ki [7]: > 9.5 µM |
| CNC(C)Cc1ccc(O)c(O)c1 (stereo not drawn) [HHMA, 3,4-dihydroxymethamphetamine] | more than 200% | 1.3 ± 0.1 | 0.94 ± 0.14 µM | > 5.1 µM | > 13 | > 12 | 1.9 µM | 3 ± 0.3 | > 4.4 | > 7.4 | > 18 | 65 | > 9.5 | – | – | – | – | – |
| CNC(C)C(=O)c1ccc(O)c(O)c1 (stereo not drawn) [HHMC, 3,4-Dihydroxymethcathinone] | more than 200% | > 4.7 | 4 ± 1 µM | > 5.1 µM | > 13 | > 12 | 7.1 ± 0.3 µM | 2.2 ± 0.1 | > 4.4 | > 7.4 | > 18 | > 100 | > 9.5 | 10–13% | 60 to 70 | – | – | – |
| CCCC(C(=O)c1ccc(O)c(O)c1)N1CCCC1 (stereo not drawn) [HHPV, 3,4-dihydroxypyrovalerone] | – | > 4.7 | 0.11 ± 0.01 µM | > 5.1 µM | > 13 | > 12 | 0.02 µM and 0.023 µM | > 5.2 | > 4.4 | > 7.4 | 4.3 ± 1.6 | > 100 | > 9.5 | – | – | 3.43 to 4.28 | – | maximal concentration as % of the parent compound MDPV [9]: 12–19% |
| CNC(C)Cc1ccc(O)c(OC)c1 (stereo not drawn) [HMMA, 4-hydroxy-3-methoxymethamphetamine] | – | > 4.7 | > 8.8 µM | > 5.1 µM | > 13 | > 12 | > 8.5 µM | 0.25 ± 0.04 | 0.45 ± 0.05 | > 7.4 | > 18 | 20 | > 9.5 | – | – | – | 3.6 (1.4–8.9) | Cmax as % of the Cmax of MDMA [10]: 9–48%; Cmax of unconjugated form as % of the Cmax of MDMA [10]: 1–3% |
| CNC(C)C(=O)c1ccc(O)c(OC)c1 (stereo not drawn) [HMMC, 4-hydroxy-3-methyoxymethcathinone] | – | > 4.7 | 4 µM and 4.2 µM | > 5.1 µM | > 13 | > 12 | > 8.5 µM | > 5.2 | > 4.4 | > 7.4 | > 18 | > 100 | > 9.5 | 12–22% | 90 to 120 | – | – | maximum dopamine transporter inhibition (DAT [4]; partial inhibition of dopamine uptake): 26% |
| CCCC(C(=O)c1ccc(O)c(OC)c1)N1CCCC1 (stereo not drawn) [HMPV, 4-hydroxy-3-methyoxypyrovalerone] | – | > 4.7 | 6.2 ± 0.7 µM | > 5.1 µM | > 13 | > 12 | 2 ± 0.2 µM | > 5.2 | > 4.4 | > 7.4 | > 17 | > 100 | > 9.5 | – | – | 3.15 to 3.43 | – | maximal concentration as % of the parent compound MDPV [9]: 53–61% |
| CC(N)C(=O)c1ccc2c(c1)OCO2 (stereo not drawn) [MDC, 3,4-methylenedioxycathinone] | – | > 4.7 | > 8.8 µM | > 5.1 µM | > 13 | > 12 | > 8.5 µM | – | 3.5 ± 0.3 | > 7.4 | > 17 | 13 | > 9.5 | 10–13% | 30 to 45 | – | 0.38 (0.24–0.59) | delay of serum peak relative to methylone [11]: 30 min; serum level as % of the methylone levels ([11]; peak): about 20% |
| CNC(C)Cc1ccc2c(c1)OCO2 (stereo not drawn) [MDMA, 3,4-Methylenedioxymethamphetmine, reference compound] | – | – | – | – | – | – | – | – | – | – | – | – | – | – | – | – | – | Ki (NET [2]): > 8.7 µM; Ki (dopamine D2 receptors): > 13 µM; Ki (5-HT2A receptor): 4.6 ± 1.1 µM; Ki (DAT [3]): > 8.5 µM; Ki (rat TAAR1): 0.25 ± 0.01 µM; Ki (mouse TAAR1): 3.1 ± 0.7 µM; IC50 (DAT [4]): 21 µM; Ki (SERT): > 7.5 µM; IC50 [5]: 2.5 µM; IC50 (NET [6]): 0.38 µM |
| CCCC(C(=O)c1ccc2c(c1)OCO2)N1CCCC1 (stereo not drawn) [MDPV, 3,4-methylenedioxypyrovalerone, reference compound] | – | > 5 | 0.1 ± 0.01 µM | 2 µM and 2.1 µM | > 13 | > 12 | 0.01 µM and 0.011 µM | > 5 | > 4.7 | 2.2 ± 0.1 | 12 ± 2 | 12 | > 9.5 | – | – | 0.217 to 0.317 | 226 (143–350) | – |
